Source: patent US6358491B1, “Somatostatin analogs” (Berlex Laboratories, Inc., priority 1999, dated 2002)
Read-outs that look alike come from different tables or passages of the source. Where a SMILES comes first, the peptide text is derived from it. [ ]: non-standard residue; d: D form. ξ: configuration not given here. NMehCys = CN[C@@H](CCS)C(=O)O; Thr(3ξ) = CC(O)[C@H](N)C(=O)O

Legend:
[1] = test system: SSTRs, NCI-H69 membranes; test: [125I]SST-14 binding to NCI-H69 cell membranes (SSTR affinity); set-up: species or system human; details: inhibition of [125I]SST-14 binding, two-site fit
Procedure: [^125I-Tyr^11] somatostatin-14 ([^125I]SST-14) was obtained from Amersham. Unlabeled somatostatin-14 was purchased either from BACHEM (Torrance, Calif.) or from Sigma Chemical Co. (St. Louis, Mo.). Protease inhibitors, leupeptin, aprotinin, bacitracin, and benzamidine and other reagents were obtained from Sigma. Protease inhibitors were prepared in dimethylsulfoxide (DMSO) at a concentration 500×higher than the final assay concentration. The prepared protease solution was stored at −20° C. and diluted with the buffer solution before use.
Membrane preparations used in these studies were prepared from two commercially available tumor cell lines, the human small cell lung cancer cell line, NCI-H69, and the rat pancreatic tumor cell line, AR42J, obtained from American Type Culture Collection (ATCC) (Manassas, Va.). NCI-H69 cells were maintained by serial passage in RPMI 1640 with 10% fetal calf serum. AR42J cells were maintained in F-12K medium containing 20% fetal calf serum. Cells in culture flasks were incubated at 37° C. with 5% CO2 in air atmosphere following the recommendations of the “Product Sheet” from ATCC.
Cultured cells were first detached from plates with phosphate-buffered saline, pH 7.4, containing 2 mM EDTA, and centrifuged at 1,500×g for 10 min. Cells were then resuspended in 5-10 mL of the homogenization buffer (1 mM sodium bicarbonate, pH 7.4, 1 mM EDTA, 1 mM EGTA, 2.5 mM DTT, 5 μg/mL leupeptin, 5 μg/mL aprotinin, 100 μg/mL bacitracin, 100 μg/mL benzamidine) for 10 min on ice. The cells were lysed for 30 sec twice in a polytron with a setting at 5. The lysate was centrifuged at 1,000×g for 10 min at 4° C. The supernatant was centrifuged at 40,000×g for 20 min at 4° C. This step was repeated twice with the homogenization buffer in the absence of protease inhibitors. The pellet was then resuspended at 1-5 mg membrane protein/mL in 25 mM Tris, pH 7.4 without the addition of protease inhibitors and the membranes were stored at −80° C. before use. Membrane protein concentration was determined spectroscopically using the bicinchonic acid (BCA) protein assay kit (Pierce Chemical Inc. (Rockford, Ill.).
All [^125I]SST-14 binding assays were performed in 0.5 mL binding buffer containing 50 mM HEPES, pH 7.5, 10 mM MgCl2, 0.25% BSA (w/v) containing protease inhibitors (same as above) and incubated at 37° C. for 45 minutes. After incubation, samples were kept at 4° C. and rapidly filtered under vacuum through a Whatman GF/B glass fiber filter with a 12-well harvester (Skatron Instruments Inc., Sterling, Va.). The filter was washed for 9 seconds with cold 50 mM HEPES, pH 7.5, 10 mM MgCl2, 0.25% BSA (w/v). Thirty-five […] of [^125I]SST-14 from Amersham was used in each tube. Peptides were solubilized in DMSO and serially diluted with DMSO. Five μL of peptide in DMSO was used to obtain the final concentration. DMSO (5 μL) was added to the tube without the addition of any peptide or unlabeled SST-14, so that each tube contained 1% DMSO. Non-specific binding was defined as the binding of [^125I]SST-14 which was not displaceable with an excess of unlabeled SST-14 at a concentration of 1×10^−6 M. The bound [^125I]SST-14 without or with excess unlabeled SST-14 (1×10^−6 M) was defined as total binding and nonspecific binding, respectively. The difference between total and nonspecific binding was defined as specific binding. The percent inhibition (% Inh) by peptide was expressed as
% Inh=(total binding−total binding in the presence of peptide)/specific binding×100%
Inclusion of protease inhibitors in homogenizing medium as well as assay buffer is essential to maintain the integrity of both [^125I]SST-14 and somatostatin analogs for the receptor binding assay and to obtain optimal specific binding. The highest specific binding was observed when MgCl2 (10 mM) was included. Membranes were finally resuspended in a sodium-free medium and receptor binding assays were performed in the absence of sodium ions. […]

[2] = test system: AR42J tumor xenografts; test: Biodistribution of 99mTc-labeled compounds in nude mice with AR42J tumor xenografts; assay type: in vivo; details: 99mTc-labeled compound, 90 minutes post-injection; for TUMOR: i.v.; for T:B: tumor to blood ratio; for T:M: tumor to muscle ratio
Procedure: Rat pancreatic AR42J cells (ATCC, Rockville, Md., USA) were grown in Modified Ham's F12K medium (Cat. No. N-3520, Sigma, St. Louis, Mo., USA) containing 20% fetal bovine serum (FCS) (Cat. No. 1224, Lot No. 9702058, Sigma, St. Louis, Mo., USA) under sterile conditions in 95% humidity and 5% CO2. At a density of approximately 10×10^6 cells per T150 flask, the cells were harvested with trypsin and collected by centrifugation at 2400 rpm (800×g) for 15 minutes in a benchtop centrifuge (IEC Centra-8 tabletop centrifuge, International Equipment Company, Needham, Mass., USA). The cells were resuspended in medium containing 20% FCS for implantation.
Six female nude mice (CrlLNU/NU-nuBR, 6-8 weeks old) were injected subcutaneously into the right flank with tumor cells (2×10^7/100 μL) in 20% matrigel (Collaborative Biomedical Products, Chicago, Ill., USA). Fourteen days after inoculation tumors were visible in all animals. Three weeks after inoculation, tumors were aseptically dissected, minced and implanted into 60 nude mice using a trochar. The tumor xenografts from the second passage were used for biodistribution studies.
A dose of approximately 50-100 μCi ^99mTc-labeled compound/mouse was injected intravenously in a total volume of 100 μL. Mice were sacrificed 90 minutes post-injection by decapitation and the trunk blood was collected. Tumors (1 to 3 per mouse), liver, gastrointestinal tract, kidneys, and samples of muscle from both legs (quadriceps femoralis) were collected, weighed, and counted for radioactivity.

[3] = read-out: IC50 Values for Uncomplexed Compounds, NCI-H69 (first value)
[4] = read-out: IC50 Values for Uncomplexed Compounds, NCI-H69 (second value)

Compound	IC50 [1, 3]	IC50 [1, 4]	TUMOR [2]	T:B [2]	T:M [2]
C[C@@H](O)[C@@H]1NC(=O)[C@H](CCCCN)NC(=O)[C@@H](Cc2c[nH]c3ccccc23)NC(=O)[C@H](Cc2ccc(O)cc2)NC(=O)[C@H](CCSCC(=O)NC[C@H](N)C(=O)N[C@@H](CN)C(=O)N[C@@H](CS)C(=O)N[C@H](CO)[C@@H](C)O)N(C)C(=O)[C@H](Cc2ccccc2)NC1=O [cyclo-Tyr-D-Trp-Les-Thr-Phe-(N—CH3)Hcy(CH2 CO-β-Dap-Dap-Cys-Thr(ol))]	0.449 nM	46.8 nM	–	–	–
C[C@@H](O)[C@@H]1NC(=O)[C@H](CCCCN)NC(=O)[C@@H](Cc2c[nH]c3ccccc23)NC(=O)[C@H](Cc2ccc(O)cc2)NC(=O)[C@H](CCSCC(=O)N[C@@H](CO)C(=O)N[C@@H](CO)C(=O)N[C@@H](CS)C(=O)NCCOCCOCCN)N(C)C(=O)[C@H](Cc2ccccc2)NC1=O [cyclo-Tyr-D-Trp-Lys-Thr-Phe-(N—CH3)Hcy(CH2 CO-Ser-Ser-Cys-NH(CH2 CH2 O)2 CH2 CH2 NH2)]	0.645 nM	> 1000 nM	10.6 %ID/g	44	132
C[C@@H](O)[C@H](NC(=O)CSCC[C@H]1C(=O)N[C@@H](Cc2ccc(O)cc2)C(=O)N[C@H](Cc2c[nH]c3ccccc23)C(=O)N[C@@H](CCCCN)C(=O)N[C@@H]([C@@H](C)O)C(=O)N[C@@H](Cc2ccccc2)C(=O)N1C)C(=O)NCC(=O)NCC(=O)N[C@@H](CS)C(N)=O [cyclo-Tyr-D-Trp-Lys-Thr-Phe-(N—CH3)Hcy(CH2 CO-Thr-Gly-Gly-Cys-NH2)]	1.63 nM	24300 nM	3.81 %ID/g	30	95
C[C@@H](O)[C@@H]1NC(=O)[C@H](CCCCN)NC(=O)[C@@H](Cc2c[nH]c3ccccc23)NC(=O)[C@H](Cc2ccc(O)cc2)NC(=O)[C@H](CCSCC(=O)NC[C@H](N)C(=O)N[C@@H](CCCNC(=N)N)C(=O)N[C@@H](CS)C(=O)N[C@H](CO)[C@@H](C)O)N(C)C(=O)[C@H](Cc2ccccc2)NC1=O [cyclo-Tyr-D-Trp-Lys-Thr-Phe-(N—CH3)Hcy(CH2 CO-β-Dap-Arg-Cys-Thr(ol))]	0.413 nM	< 0.001 nM	–	–	–
C[C@@H](O)[C@@H]1NC(=O)[C@H](CCCCN)NC(=O)[C@@H](Cc2c[nH]c3ccccc23)NC(=O)[C@H](Cc2ccc(O)cc2)NC(=O)[C@H](CCSCC(=O)NC[C@H](N)C(=O)N[C@@H](CCN)C(=O)N[C@@H](CS)C(=O)N[C@H](CO)[C@@H](C)O)N(C)C(=O)[C@H](Cc2ccccc2)NC1=O [cyclo-Tyr-D-Trp-Lys-Thr-Phe-(N—CH3)Hcy(CH2 CO-β-Dap-Dab-Cys-Thr(ol))]	0.642 nM	> 1000 nM	–	–	–
C[C@@H](O)[C@H](NC(=O)[C@H](CS)NC(=O)[C@H](CCN)NC(=O)[C@@H](N)CNC(=O)CSCC[C@H]1C(=O)N[C@@H](Cc2ccc(O)cc2)C(=O)N[C@H](Cc2c[nH]c3ccccc23)C(=O)N[C@@H](CCCCN)C(=O)N[C@@H]([C@@H](C)O)C(=O)N[C@@H](Cc2ccccc2)C(=O)N1C)C(=O)O [cyclo-Tyr-D-Trp-Lys-Thr-Phe-(N—CH3)Hcy(CH2 CO-β-Dap-Dab-Cys-Thr)]	1.25 nM	1.25 nM	–	–	–
C[C@@H](O)[C@@H]1NC(=O)[C@H](CCCCN)NC(=O)[C@@H](Cc2c[nH]c3ccccc23)NC(=O)[C@H](Cc2ccc(O)cc2)NC(=O)[C@H](CCSCC(=O)NC[C@H](N)C(=O)N[C@@H](Cc2c[nH]cn2)C(=O)N[C@@H](CS)C(=O)N[C@H](CO)[C@@H](C)O)N(C)C(=O)[C@H](Cc2ccccc2)NC1=O [cyclo-Tyr-D-Trp-Lys-Thr-Phe-(N—CH3)Hcy(CH2 CO-β-Dap-His-Cys-Thr(ol))]	0.861 nM	–	15.5 %ID/g	29	96
C[C@@H](O)[C@H](NC(=O)[C@H](CS)NC(=O)[C@H](Cc1ccc(N)cc1)NC(=O)[C@@H](N)CNC(=O)CSCC[C@H]1C(=O)N[C@@H](Cc2ccc(O)cc2)C(=O)N[C@H](Cc2c[nH]c3ccccc23)C(=O)N[C@@H](CCCCN)C(=O)N[C@@H]([C@@H](C)O)C(=O)N[C@@H](Cc2ccccc2)C(=O)N1C)C(=O)O [cyclo-Tyr-D-Trp-Lys-Thr-Phe-(N—CH3)Hcy(CH2 CO-β-Dap-Phe(4-NH2)-Cys-Thr)]	0.641 nM	0.641 nM	–	–	–
C[C@@H](O)[C@@H]1NC(=O)[C@H](CCCCN)NC(=O)[C@@H](Cc2c[nH]c3ccccc23)NC(=O)[C@H](Cc2ccc(O)cc2)NC(=O)[C@H](CCSCC(=O)NCCC[C@H](N)C(=O)NCC(=O)N[C@@H](CS)C(N)=O)N(C)C(=O)[C@H](Cc2ccccc2)NC1=O [cyclo-Tyr-D-Trp-Lys-Thr-Phe-(N—CH3)Hcy(CH2 CO-δ-Orn-Gly-Cys-NH2)]	–	–	1.8 %ID/g	29	95
CC(O)[C@@H]1NC(=O)[C@H](CCCCN)NC(=O)[C@@H](Cc2c[nH]c3ccccc23)NC(=O)[C@H](Cc2ccc(O)cc2)NC(=O)[C@H](CCS)N(C)C(=O)[C@H](Cc2ccccc2)NC1=O (stereo partly drawn) [cyclo-YWDKTF.(N—CH3).Hcy., cyclo-Tyr-D-Trp-Lys-Thr-Phe-(N—CH3)Hcy] (cyclo(F[NMehCys]Y[dW]K[Thr(3ξ)]))	0.21 nM	–	–	–	–
C[C@@H](O)[C@H](NC(=O)[C@H](CS)NC(=O)[C@H](Cc1ccc(N)cc1)NC(=O)[C@@H](N)CNC(=O)CSCC[C@H]1C(=O)N[C@@H](Cc2ccc(O)cc2)C(=O)N[C@H](Cc2c[nH]c3ccccc23)C(=O)N[C@@H](CCCCN)C(=O)N[C@@H]([C@@H](C)O)C(=O)N[C@@H](Cc2ccccc2)C(=O)N1C)C(=O)NC(CO)CO [cyclo-YWDKTF.(N—CH3)Hcy(CH2CO.β-Dap.F(4-NH2).CT.S(ol))]	0.388 nM	0.388 nM	–	–	–
CC(C)[C@@H]1NC(=O)[C@H](CCCCN)NC(=O)[C@@H](Cc2c[nH]c3ccccc23)NC(=O)[C@H](Cc2ccc(O)cc2)NC(=O)[C@H](CCS)N(C)C(=O)[C@H](Cc2ccccc2)NC1=O [cyclo-YWDKVF.(N—CH3).Hcy.] (cyclo(Y[dW]KVF[NMehCys]))	0.21 nM	–	–	–	–
